Experimental data from ChEMBL document CHEMBL1129260, “Evaluation of the stability and animal biodistribution of gadolinium (III) benzylamine-derivatized diethylenetriaminepentaacetic acid” (J Med Chem, 1996).

Test: Gadolinium(III) stability constants (log K value) for the compound polyamino carboxylate derivative

SMILES	log K Gd(III) stability constant
CCCOC(=O)CN(CCN(CCN(CC(=O)O)CC(=O)O)CC(=O)O)CC(=O)O	18.9
O=C(O)CN(CCN(CC(=O)O)CC(=O)O)CCN(CC(=O)O)C(COCc1ccccc1)C(=O)O (stereo not given)	22.6
CCCNC(=O)CN(CCN(CCN(CC(=O)O)CC(=O)O)CC(=O)O)CC(=O)O	19.7

Other lines, results leading:

log K Gd(III) stability constant	SMILES
17.8	CCN(CCN(CC(=O)O)CC(=O)O)CCN(CC(=O)O)CC(=O)O
22.4	O=C(O)CN(CCN(CC(=O)O)CC(=O)O)CCN(CC(=O)O)CC(=O)O [PENTETIC ACID]
